The numbers were not newly measured in patent US4196122A, “Analgesic polypeptide” (American Home Products Corporation, priority 1977, dated 1980), which cites them from elsewhere.

For one data set, the system named is rats. The settings on record: injection in the brain ventricle in rats; fully reversible by naloxone.
The subject of the next data set is opiate receptor. The settings on record: brain homogenates.

Turning to “H-Tyr-Gly-Gly-Phe-Leu-OH [leucine-enkephalin]”, in the data set on rats, the analgesia entry is listed as “induce a profound analgesia”. Besides, the “inhibition of stereospecific receptor binding of 3H-naloxone” value in the data set with opiate receptor is “inhibit the stereospecific receptor binding”.
As for “H-Tyr-Gly-Gly-Phe-Met-OH [methionine-enkephalin]”, the analgesia result with rats is listed as “induce a profound analgesia”. The “inhibition of stereospecific receptor binding of 3H-naloxone” value with opiate receptor was “inhibit the stereospecific receptor binding”.
